Data as given in patent publication US10414759B2, “Phenylthiazoles and uses thereof” (Purdue Research Foundation, priority 2017, dated 2019).
Converted amounts (≈) assume the structure as drawn.

How the values were obtained:
MRSA (2658 RCMB) = test: MIC against MRSA (2658 RCMB), broth dilution; assay type: cell-based, Staphylococcus aureus; settings: Staphylococcus aureus; Table 7; initial screening, MRSA (2658 RCMB); read-out: minimum inhibitory concentration (MIC)
Summary of the method: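 Broth dilution in cation-adjusted Mueller-Hinton broth with an inoculum of about 5×10^5 CFU/mL (from a 0.5 McFarland suspension), using triplicate serial dilutions. MIC was the lowest concentration with no visible growth by visual inspection, reported as the mean of triplicates.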

MRSA (USA300) = test: Time-kill assay; assay type: cell-based, Staphylococcus aureus
Procedure: Aliquots (100 μL) were taken from each sample after 2, 4, 6, 8, 10, 12, and 24 hours, serially diluted in phosphate-buffered saline, and transferred to Trypticase soy agar (TSA) (Becton, Dickinson and Company, Sparks, Md., USA) plates. Plates were incubated at 37° C. for at least 16 hours before counting viable CFU/mL to determine the time required to reduce the bacterial cell count by 3-log10.

MRSA NRS119 = test: MIC/MBC S. aureus strains (Table 8); assay type: cell-based; settings: Staphylococcus aureus
Procedure: (§1) A bacterial solution equivalent to 0.5 McFarland standard was prepared and diluted in cation-adjusted Mueller-Hinton broth (CAMHB) to achieve a bacterial concentration of about 5×10^5 CFU/mL and seeded in 96-well plates. Enterococcus faecium was diluted in brain heart infusion broth. Enterococcus faecalis, Streptococcus pneumonia and Listeria monocytogenes were diluted in tryptone soya broth (TSB).

MRSA NRS123 (USA400) = test: MIC/MBC S. aureus strains (Table 8); assay type: cell-based; settings: Staphylococcus aureus
Procedure: as §1

MRSA NRS384 (USA300) = test: MIC/MBC S. aureus strains (Table 8); assay type: cell-based; settings: Staphylococcus aureus
Procedure: as §1

MRSA NRS385 = test: MIC/MBC S. aureus strains (Table 8); assay type: cell-based; settings: Staphylococcus aureus
Procedure: as §1

MRSA NRS386 = test: MIC/MBC S. aureus strains (Table 8); assay type: cell-based; settings: Staphylococcus aureus
Procedure: as §1

S. aureus ATCC 6538 = test: MIC/MBC S. aureus strains (Table 8); assay type: cell-based; settings: Staphylococcus aureus, ATCC6538
Procedure: as §1

S. aureus NRS107 = test: MIC/MBC S. aureus strains (Table 8); assay type: cell-based, Staphylococcus aureus; settings: Staphylococcus aureus; Table 8; S. aureus NRS107
Procedure: as §1

VRS10 (VRSA) = test: MIC/MBC S. aureus strains (Table 8); assay type: cell-based; settings: Staphylococcus aureus, Table 8, VRS10 (VRSA)
Procedure: (§2) The minimum inhibitory concentration (MIC) of tested compounds and control antibiotics were determined using the broth microdilution method in accordance with the recommendations contained in the Clinical and Laboratory Standards Institute guidelines, against methicillin-sensitive (ATCC 6538 and NRS107), methicillin-resistant (MRSA), and vancomycin-resistant (VRSA) Staphylococcus aureus, Staphylococcus epidermidis, Enterococcus faecalis, E. faecium, Listeria monocytogenes, and Streptococcus pneumoniae clinical isolates. A bacterial solution equivalent to 0.5 McFarland standard was prepared and diluted in cation-adjusted Mueller-Hinton broth (CAMHB) to achieve a bacterial concentration of about 5×10^5 CFU/mL and seeded in 96-well plates. Enterococcus faecium was diluted in brain heart infusion broth. Enterococcus faecalis, Streptococcus pneumonia and Listeria monocytogenes were diluted in tryptone soya broth (TSB). Compounds and control drugs were added in the first row of 96-well plates and serially diluted (to achieve a concentration gradient ranging from 128 to 1 μg/mL). Plates were then incubated aerobically at 37° C. for at least 18 hours. The minimum bactericidal concentration (MBC) of the active compounds was tested by plating 5 μL from wells with no growth onto Tryptic soy agar (TSA) plates.

VRS12 (VRSA) = test: MIC/MBC S. aureus strains (Table 8); assay type: cell-based; settings: Staphylococcus aureus, Table 8, VRS12 (VRSA)
Procedure: as §2

[1] = system: Enterococcus faecium ATCC 700221 (VRE); test: MIC/MBC Gram-positive pathogens (Table 9); assay type: cell-based; settings: Table 9; Enterococcus faecium ATCC 700221 (VRE); read-out: MIC
Procedure: as §2

[2] = system: Cephalosporin-resistant Streptococcus pneumoniae ATCC 51916; test: MIC/MBC Gram-positive pathogens (Table 9); assay type: cell-based; settings: ATCC51916
Procedure: as §1

[3] = system: Enterococcus faecalis ATCC 51299 (VRE); test: MIC/MBC Gram-positive pathogens (Table 9); assay type: cell-based; settings: Table 9; Enterococcus faecalis ATCC 51299 (VRE)
Procedure: as §1

[4] = system: Listeria monocytogenes ATCC 19111; test: MIC/MBC Gram-positive pathogens (Table 9); assay type: cell-based
Procedure: as §1

[5] = system: Methicillin-resistant Staphylococcus epidermidis NRS101; test: MIC/MBC Gram-positive pathogens (Table 9); assay type: cell-based
Procedure: as §1

[6] = system: Methicillin-resistant Streptococcus pneumoniae ATCC 700677; test: MIC/MBC Gram-positive pathogens (Table 9); assay type: cell-based; settings: ATCC700677
Procedure: as §1

[7] = system: human colorectal (Caco-2) cell; test: In vitro cytotoxicity against Caco-2 cells (MTS); assay type: cell-based; settings: at 32 μg/mL
Procedure: Tested compounds were assayed (at concentrations of 16, 32, and 64 μg/mL) against a human colorectal (Caco-2) cell to determine the potential toxic effect to mammalian cells in vitro. Briefly, cells were cultured in Dulbecco's Modified Eagle Medium (DMEM) supplemented with 20% fetal bovine serum (FBS), non-essential amino acids (1×), and penicillin-streptomycin at 37° C. with CO2 (5%). Control cells received DMSO alone at a concentration equal to that in drug-treated cell samples. The cells were incubated with the compounds (in triplicate) in a 96-well plate at 37° C. with CO2 (5%) for two hours. The assay reagent MTS 3-(4,5-dimethylthiazol-2-yl)-5-(3-carboxymethoxyphenyl)-2-(4-sulfophenyl)-2H-tetrazolium) (Promega, Madison, Wis., USA) was subsequently added and the plate was incubated for four hours. Absorbance readings (at OD490) were taken using a kinetic microplate reader (Molecular Devices, Sunnyvale, Calif., USA). The quantity of viable cells after treatment with each compound was expressed as a percentage of the viability of DMSO-treated control cells (average of triplicate wells±standard deviation). The toxicity data was analyzed via a two-way ANOVA, with post hoc Sidak's multiple comparisons test (P<0.05), utilizing GraphPad Prism 6.0 (GraphPad Software, La Jolla, Calif.).

[8] = ATCC19111, Table 9, Listeria monocytogenes ATCC 19111

MIC (MRSA (2658 RCMB)): 0.78 µg/mL (≈ 1.82 µM)
MIC (MRSA NRS119): 4 µg/mL (≈ 9.33 µM)
MIC (MRSA NRS123 (USA400)): 4 µg/mL (≈ 9.33 µM)
MIC (MRSA NRS384 (USA300)): 4 µg/mL (≈ 9.33 µM)
MIC (MRSA NRS385): 4 µg/mL (≈ 9.33 µM)
MIC (MRSA NRS386): 4 µg/mL (≈ 9.33 µM)
MIC (S. aureus ATCC 6538): 4 µg/mL (≈ 9.33 µM)
MIC (S. aureus NRS107): 4 µg/mL (≈ 9.33 µM)
MIC (VRS10 (VRSA); read-out: MIC): 4 µg/mL (≈ 9.33 µM)
MIC (VRS12 (VRSA); read-out: MIC): 4 µg/mL (≈ 9.33 µM)
MIC [1]: 8 µg/mL (≈ 18.7 µM)
MIC [2]: 4 µg/mL (≈ 9.33 µM)
MIC [3]: 8 µg/mL (≈ 18.7 µM)
MIC [4, 8]: 4 µg/mL (≈ 9.33 µM)
MBC values relative to MIC values against L. monocytogenes ([4]; text b122): more than three-fold higher
MIC [5]: 64 µg/mL (≈ 149 µM)
MIC [6]: 4 µg/mL (≈ 9.33 µM)
SMILES: Cc1nc(-c2ccc(C(C)(C)C)cc2)sc1-c1ccnc(NC(=N)c2cccnc2)n1 [Compound 63, N-(4-(2-(4-(tert-Butyl)phenyl)-4-methylthiazol-5-yl)pyrimidin-2-yl) nicotinimidamide]
bactericidal / bacteriostatic behaviour in time-kill assay, in words (MRSA (USA300); MRSA, 3.0×MIC): bacteriostatic activity
decrease in MRSA CFU (MRSA (USA300); over 24 hours): 2.3 log
MBC (MRSA NRS119): 4 µg/mL (≈ 9.33 µM)
MBC (MRSA NRS123 (USA400)): 4 µg/mL (≈ 9.33 µM)
MBC (MRSA NRS384 (USA300)): 4 µg/mL (≈ 9.33 µM)
MBC (MRSA NRS385): 4 µg/mL (≈ 9.33 µM)
MBC (MRSA NRS386): 4 µg/mL (≈ 9.33 µM)
MBC (S. aureus ATCC 6538): 4 µg/mL (≈ 9.33 µM)
MBC (S. aureus NRS107): 4 µg/mL (≈ 9.33 µM)
MBC (VRS10 (VRSA); read-out: MBC): 4 µg/mL (≈ 9.33 µM)
MBC (VRS12 (VRSA); read-out: MBC): 4 µg/mL (≈ 9.33 µM)
MBC [2]: 8 µg/mL (≈ 18.7 µM)
MBC [4, 8]: 64 µg/mL (≈ 149 µM)
MBC [5]: > 64 µg/mL
MBC [6]: 8 µg/mL (≈ 18.7 µM)
tolerability to human colorectal cells, in words [7]: highly tolerable
